Laboratory results from patent US20050004126A1 (priority 2001, published 2005).

The compounds below were run against MMP-13CD (catalytic domain of collagenase 3) (Homo sapiens, UniProt P45452) (assay: Thiopeptolide hydrolysis assay, MMP-13). Settings: IC50 μM, Table V; MMP-13.
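Further: inhibition of enzymatic thiopeptolide substrate cleavage (100 µM) in pH 6.0 MES buffer with CaCl2 and DTNB, comparing hydrolysis with versus without inhibitor.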

Structure (SMILES) | IC50 [µM]
COc1ccc(CNC(=O)c2ccc3c(c2)c(=O)n(Cc2ccc(CC(=O)O)cc2)c2nncn32)cc1 [(4-{7-[(4-Methoxy)-benzylcarbamoyl]-5-oxo-5H-[1,2,4]triazolo[4,3-a]quinazolin-4-ylmethyl}-phenyl)-acetic acid] | 0.0013
O=C(OCc1ccccc1)c1ccc2c(c1)c(=O)n(Cc1ccccc1)c1nncn21 [Synthesis Example 55, Benzyl 4-benzyl-5-oxo-4H-[1,2,4]triazolo[4,3-a]quinazol-7-ylcarboxylate] | 0.0034
COc1ccc(CNC(=O)c2ccc3c(c2)c(=O)n(Cc2ccc(C(=O)O)cc2)c2nncn32)cc1 [Synthesis Example 60, 4-{7-[(4-Methoxybenzyl)-carbamoyl]-5-oxo-5H-[1,2,4]triazolo[4,3-a]quinazol-4-ylmethyl}benzoic acid] | 0.0011
COC(=O)Cc1ccc(Cn2c(=O)c3cc(C(=O)NCc4ccc5c(c4)OCO5)ccc3n3cnnc23)cc1 [Methyl (4-{7-[(1,3-benzodioxol-5-ylmethyl)-carbamoyll-5-oxo-5H-[1,2,4]triazolo[4,3-a]quinazolin-4-ylmethyl}-phenyl)-acetate] | 0.0022
O=C(NCCCSc1ccncc1)c1ccc2c(c1)c(=O)n(Cc1ccccc1)c1nncn21 [N-[3-(4-Pyridylsulphanyl)propyl]-4-benzyl-5-oxo-4,5-dihydro[1,2,4]triazolo[4,3-a]quinazoline-7-carboxamide] | 0.185

Same assay, conditions: IC50 μM, Table VII; MMP-13

Structure (SMILES) | IC50 [µM]
COC(=O)c1ccc(Cn2c(=O)c3cc(C#CCc4ccc(OC)cc4)ccc3n3cnnc23)cc1 [Synthesis Example 73, Methyl 4-{7-[3-(4-methoxy-phenyl)-prop-1-ynyl]-5-oxo-5H-[1,2,4]triazolo[4,3-a]quinazolin-4-ylmethyl}-benzoate] | 0.0017
O=c1c2cc(C#CCc3ccccc3)ccc2n2cnnc2n1Cc1ccccc1 [Synthesis Example 71, 4-Benzyl-7-(3-phenyl-prop-1-ynyl)-4H-[1,2,4]triazolo[4,3-a]quinazolin-5-one] | 0.0055
COC(=O)c1ccc(Cn2c(=O)c3cc(C#CCc4ccc(OC)cc4)ccc3n(C)c2=O)cc1 [Synthesis Example 66, Methyl 4-{6-[3-(4-methoxyphenyl)-prop-1-ynyl]-1-methyl-2,4-dioxo-1,4-dihydro-2H-quinazolin-3-ylmethyl}-benzoate] | 0.01

Same assay, conditions: MMP 13 IC50 μM, Table III

Structure (SMILES) | IC50 [µM]
CCOc1ccccc1COC(=O)c1cc2c(=O)n(Cc3ccc(C(=O)O)cc3)c(=O)n(C)c2s1 | 8
COc1ccc(CNC(=O)c2cc3c(=O)n(Cc4ccc5nocc5c4)c(=O)n(C)c3s2)cc1 | 0.018
COc1cccc(CNC(=O)c2cc3c(=O)n(CS(=O)(=O)Cc4ccccc4)c(=O)n(C)c3s2)c1 | 1.7

Same assay, conditions: MMP13 IC50 μM, Table IVb

Structure (SMILES) | IC50 [µM]
COc1cccc(CNC(=O)c2ccc3c(c2)c(=O)n(Cc2ccc(Cl)cc2)c(=O)n3C)c1 | 0.0043
Cn1c(=O)n(Cc2ccccc2)c(=O)c2cc(C(=O)CCc3ccccc3)ccc21 [3-Benzyl-1-methyl-6-(3-phenyl-propionyl)-1H-quinazoline-2,4-dione] | 2.9
Cn1c(=O)n(Cc2cccc(F)c2)c(=O)c2cc(C(=O)NCc3ccncc3)ccc21 | 0.017
Cn1c(=O)n(Cc2ccc(Cl)cc2)c(=O)c2cc(C(=O)NCc3ccncc3)ccc21 | 0.053
COc1ccc(CNC(=O)c2ccc3c(c2)c(=O)n(CCn2cccc2)c(=O)n3C)cc1 | 1.45
COC(=O)Cn1c(=O)n(Cc2ccccc2)c(=O)c2cc(C(=O)NCc3ccc4c(c3)OCO4)ccc21 | 0.16
CNS(=O)(=O)c1ccc(Cn2c(=O)c3cc(C(=O)NCc4ccc(OC)cc4)ccc3n(C)c2=O)cc1 | 0.0044
COC(=O)c1ccc(Cn2c(=O)c3cc(C(=O)NCc4ccc(OC)cc4)ncc3n(C)c2=O)cc1 [Methyl 4-[6-(4-Methoxy-benzylcarbamoyl)-1-methyl-2,4-dioxo-1,4-dihydro-2H-pyrido[3,4-d]pyrimidin-3-ylmethyl]-benzoate] | 0.0017
COC(=O)c1ccc(Cn2c(=O)c3cc(C(=O)NCc4ccc(SC)cc4)ccc3n(C)c2=O)cc1 | 0.023
COc1ccc(CNC(=O)c2ccc3c(c2)c(=O)n(CC2CCCN(C)C2)c(=O)n3C)cc1 (stereo not drawn) | 5.4
COc1ccc(CNC(=O)c2ccc3c(c2)c(=O)n(Cc2ccc(C(=O)N(C)C)cc2)c(=O)n3C)cc1 | 0.012
Cn1c(=O)n(Cc2ccncc2)c(=O)c2cc(C(=O)NCc3ccc(O)cc3)ccc21 | 0.051
COc1ccc(CNC(=O)c2ccc3c(c2)c(=O)n(CC(N)=O)c(=O)n3C)cc1 | 1.95
COc1cc(CNC(=O)c2ccc3c(c2)c(=O)n(Cc2ccc(Br)cc2)c(=O)n3C)ccn1 | 0.0076
COc1ccc(CNC(=O)c2ccc3c(c2)c(=O)n(CC2CCCCC2)c(=O)n3C)cc1 | 0.042
COc1ccc(CNC(=O)c2ccc3c(c2)c(=O)n(Cc2cccc(F)c2)c(=O)n3C)cc1 | 0.0079
COc1ccc(CNC(=O)c2ccc3c(c2)c(=O)n(Cc2ccc(C4(C(=O)OC(C)(C)C)CC4)cc2)c(=O)n3C)cc1 | 0.0665
COC(=O)c1ccc(Cn2c(=O)c3cc(C(=O)NCc4ccc5nonc5c4)ccc3n(C)c2=O)cc1 | 0.035
COC(=O)c1ccc(Cn2c(=O)c3cc(C(=O)NCc4ccc(OC)cc4)ccc3n(C)c2=O)cc1Cl | 0.14
COc1ccc(CNC(=O)c2ccc3c(c2)c(=O)n(Cc2ccc(N)nc2)c(=O)n3C)cc1 | 0.053
Cn1c(=O)n(Cc2ccc(O)cc2)c(=O)c2cc(C(=O)NCc3ccncc3)ccc21 | 0.057
COc1ccc(CNC(=O)c2ccc3c(c2)c(=O)n(Cc2ccccn2)c(=O)n3C)cc1 | 0.43
COc1ccc(CNC(=O)c2ccc3c(c2)c(=O)n(CC=C(C)C)c(=O)n3C)cc1 | 0.2
COc1cc(CNC(=O)c2ccc3c(c2)c(=O)n(Cc2ccc(F)cc2)c(=O)n3C)ccn1 | 0.011

Structure (SMILES) | IC50 [µM]
COc1ccc(CNC(=O)c2cnc3c(c2)c(=O)n(Cc2ccc(F)cc2)c(=O)n3C)cc1 [3-(4-Fluoro-benzyl)-1-methyl-2,4-dioxo-1,2,3,4-tetrahydro-pyrido[2,3-d]pyrimidine-6-carboxylic acid 4-methoxy-benzylamide] | 0.032
COc1ccc(CNC(=O)c2ccc3c(c2)c(=O)n(CCCc2ccccc2)c(=O)n3C)cc1 | 0.59
COc1ccc(CNC(=O)c2ccc3c(c2)c(=O)n(Cc2ccc([N+](=O)[O-])cc2)c(=O)n3C)cc1 | 0.014
COc1ccc(CNC(=O)c2ccc3c(c2)c(=O)n(CC=CC(=O)O)c(=O)n3C)cc1 | 1.4
Cn1c(=O)n(Cc2ccccc2)c(=O)c2cc(SCc3ccccc3)ccc21 [3-Benzyl-6-benzylsulfanyl-1-methyl-1H-quinazoline-2,4-dione] | 4.1
COc1cc(CNC(=O)c2ccc3c(c2)c(=O)n(Cc2cccc(F)c2)c(=O)n3C)ccn1 | 0.0058
COc1ccc(CNC(=O)c2ccc3c(c2)c(=O)n(Cc2cccnc2)c(=O)n3C)cc1 | 0.046
COc1ccc(CNC(=O)c2ccc3c(c2)c(=O)n(Cc2ccc(C#N)cc2)c(=O)n3C)cc1 | 0.008
COC(=O)c1ccc(Cn2c(=O)c3cc(C(=O)NCc4ccc5c(c4)OCO5)ccc3n(C)c2=O)cc1 | 0.0028
COc1ccc(CNC(=O)c2ccc3c(c2)c(=O)n(Cc2ccc(-c4noc(C)n4)cc2)c(=O)n3C)cc1 | 0.0049
COc1ccc(CNC(=O)c2ccc3c(c2)c(=O)n(Cc2ccc(S(=O)(=O)NCCN(C)C)cc2)c(=O)n3C)cc1 | 0.055
COC(=O)CCn1c(=O)c2cc(C(=O)NCc3ccc(OC)cc3)ccc2n(C)c1=O | 2.1
Cn1c(=O)n(Cc2ccc(CC(=O)O)cc2)c(=O)c2cc(C(=O)NCc3ccncc3)ccc21 | 0.011
COc1ccc(CNC(=O)c2ccc3c(c2)c(=O)n(C/C=C/c2cccnc2)c(=O)n3C)cc1 | 0.095
COc1ccc(CNC(=O)c2ccc3c(c2)c(=O)n(Cc2ccc(C(=O)OCCN(C)C)c(OC)c2)c(=O)n3C)cc1 | 0.5
COc1ccc(CNC(=O)c2ccc3c(c2)c(=O)n(Cc2ccc(C(=O)O)c(F)c2)c(=O)n3C)cc1 | 0.001
COC(=O)c1ccc(Cn2c(=O)c3cc(C(=O)NCc4cc[n+]([O-])cc4)ccc3n(C)c2=O)cc1 | 0.1
COc1ccc(CNC(=O)c2ccc3c(c2)c(=O)n(Cc2ccc(F)c(F)c2)c(=O)n3C)cc1 | 0.0098
COC(=O)Cc1ccc(Cn2c(=O)c3cc(C(=O)NCc4ccncc4)ccc3n(C)c2=O)cc1 | 0.02
COc1ccc(CNC(=O)c2ccc3c(c2)c(=O)n(Cc2ccc(C(=O)O)c(OC)c2)c(=O)n3C)cc1 | 0.0045
COc1ccc(CNC(=O)c2ccc3c(c2)c(=O)n(Cc2ccc(-c4ccccc4C#N)cc2)c(=O)n3C)cc1 | 0.025
COC(=O)/C=C/Cn1c(=O)c2cc(C(=O)NCc3ccc(OC)cc3)ccc2n(C)c1=O | 0.315
COc1ccc(CNC(=O)c2ccc3c(c2)c(=O)n(-c2ccc(CC(=O)O)cc2)c(=O)n3C)cc1 | 8
Cn1c(=O)n(Cc2ccccc2)c(=O)c2cc(C(=O)NCc3ccc4c(c3)OCO4)ncc21 [3-Benzyl-1-methyl-2,4-dioxo-1,2,3,4-tetrahydro-pyrido[3,4-d]pyrimidine-6-carboxylic acid (1,3-benzodioxol-5-ylmethyl)-amide] | 0.00078

Same assay, conditions: MMP13 IC50 (nM), Table II

Structure (SMILES) | IC50 [µM]
O=C(NCc1ccncc1)c1cccc(C(=O)NCc2ccc(Cl)c(Cl)c2)c1 | 2.5
CCOCCNC(=O)c1ccc(OC)c(C(=O)NCc2ccc3c(c2)OCO3)c1 | 5.7
Nc1ccc(C(=O)NCc2ccc3c(c2)OCO3)cc1C(=O)NCc1ccc2c(c1)OCO2 | 4.1
COc1ccc(CNC(=O)c2ccc(OC)c(C(=O)NCc3ccncc3)c2)cc1 | 1.5
COc1cccc(CNC(=O)c2cccc(C(=O)NCc3cccc([N+](=O)[O-])c3)c2)c1 | 2.1

Same assay, conditions: MMP13 IC50 (μM), Table 1b

Structure (SMILES) | IC50 [µM]
Cc1c(=O)n(CCOc2ccccc2)c(=O)n2cc(C(=O)NCc3ccc(F)cc3)sc12 | 0.058
Cc1c(=O)n(CCS(=O)(=O)Cc2ccccc2)c(=O)n2cc(C(=O)NCc3ccc(F)cc3)sc12 | 0.56
Cc1c(=O)n(CCS(=O)(=O)c2ccc(F)cc2)c(=O)n2cc(C(=O)NCc3ccc(F)cc3)sc12 | 0.645
CC/C=C/Cn1c(=O)c(C)c2sc(C(=O)NCc3ccc(F)cc3)cn2c1=O | 0.16
Cc1c(=O)n(CCC(=O)c2ccc(F)cc2)c(=O)n2cc(C(=O)NCc3ccc(F)cc3)sc12 | 0.51
